# From patent publication US20070172815A1 (priority 2000, published 2007)
# Assays:
# [1] = target: T1, large conductance calcium-activated K+ channel, Maxi-K (a.k.a. BK, slo) (Homo sapiens, UniProt Q12791); experiment: Thallium influx assay (BTC fluorescence) in HEK-293 cells stably transfected with Maxi-K; format: cell-based
# T1 construct: expressed in transfected cells
# Protocol: HEK-293 cells were stably transfected with Maxi-K channels. […] The channel opener used was NS-1619 (Sigma-Aldrich, St Louis, Mo.) at a final concentration of 15 μM. The channel blocker used was Iberiotoxin (Sigma-Aldrich, St. Louis, Mo.) at a final concentration of 100 nM.
# To detect channel blockers, the assay was started by adding 11 μl of stimulus buffer containing: 15 μM ionomycin, 12.5 Tl2SO4 and 50 mM K2SO4 dissolved in the Cl^−-free assay buffer (Table II) containing 2 mM amaranth and 1 mM tartrazine.
# To detect channel openers, the stimulus buffer was identical to the assay conditions of the channel blockers with the exception that 5 μM ionomcyin was used in place of 15 μM ionomycin. Under these conditions the channels were submaximally opened, allowing observation of openers of the channels.
# [2] = tested on: native, untransfected HEK cells; experiment: Control: BTC fluorescence in native, untransfected HEK cells under identical conditions; format: cell-based, human
# Description: A person of ordinary skill in the art will understand that control experiments can be performed to facilitate analysis of the effects of the candidate modulator. Control experiments can be performed using: (1) native, untransfected cells under identical conditions of the methods of the invention; (2) the addition of thallium ions to the test mixture in the absence of stimulus solution; (3) cells under identical conditions of the methods of the invention, but without the candidate modulator of the ion channels, channel-linked receptors or ion transporters added to the test mixture; and/or (4) cells under identical conditions to the methods of the invention, but using known modulators of the ion channels, channel-linked receptors or ion transporters.
# (§1) Once loaded, apamin (5 μl/well of 500 nM stock dissolved in Cl^−-free assay buffer (Table II) or an equivalent volume of Cl^−-free assay buffer) was added. The microtiter plates were then transferred to the plate reader, FLIPR. After, or coincident with exposure to apamin or Cl^−-free assay buffer alone, the cells were exposed to 5 μl/well of a stimulus buffer containing 5 μM ionomycin (Calbiochem) and 7.5 mM Tl2SO4 dissolved in Cl^−-free assay buffer containing 2 mM amaranth and 1 mM tartrazine.
# [3] = target: T2, non-selective cation channel vanilloid receptor (VR1) (Homo sapiens, UniProt Q8NER1); experiment: Thallium influx assay (BTC fluorescence) in CHO cells stably expressing VR1; format: cell-based
# T2 construct: expressed in transfected cells
# Protocol: (§2) A HEK-293 cell line (obtained from ATCC, Manassas, Va.) stably expressing the small conductance calcium-activated K^+ channel (SK2) was seeded at ~80% confluence in a 384 well microtiter plate, coated with poly-D-lysine plates, containing 20 μl/well low Cl^− cell growth medium. The cells were allowed to incubate overnight at 37 C in a 5% CO2 incubator.
# (§3) The cell-containing plates were removed from the incubator and loaded for approximately 15 min with 2 μM BTC-AM (Molecular Probes, Eugene, Oreg.) dissolved in 20 μL/well Cl^−-free assay buffer containing amaranth and tartrazine (the final concentration in the assay is 2 mM amaranth and 1 mM tartrazine). The AM ester of BTC (BTC-AM) is membrane permeant. As it diffuses across the membrane, it is cleaved by cellular esterases, producing a charged, membrane impermeant dye, BTC. These types of dyes and loading mechanisms are well known to those familiar with the art.
# The microtiter plates were then transferred to the plate reader, FLIPR.
# (§4) All data shown were collected using the FLIPR (Molecular Devices, Sunnyvale, Calif). […] 10 seconds of baseline prior to addition of the stimulus buffer.
# All experimental conditions for this example were the same as Example II with the following exceptions: • 1. The cell line CHO stably expressing the non-selective cation channel vanilloid receptor (VR1) was used. • 2. The channel antagonist, capsazepine (Sigma-Aldrich, RBI St Louis, Mo.) was applied at a final concentration of 10 μM; and • 3. The assay was started by adding 5 μl of stimulus buffer containing: 1 μM capsaicin and 7.5 mM Tl2SO4 dissolved in a Cl^−-free assay buffer containing 2 mM amaranth and 1 mM tartrazine.
# [4] = target: Muscarinic acetylcholine receptor (Homo sapiens, UniProt P20309)
# Protocol: as §2, §3, §4
# [5] = target: T3, small conductance calcium-activated K+ channel (SK2) (Homo sapiens, UniProt Q9H2S1); experiment: Thallium influx assay (BTC fluorescence, FLIPR) in HEK-293 cells stably expressing SK2; format: cell-based; conditions: stimulus buffer with 5 μM ionomycin and 7.5 mM Tl2SO4; FIG. 1
# T3 construct: expressed in transfected cells
# Protocol: as §1
# [6] = target: T3, small conductance calcium-activated K+ channel (SK2); experiment: Thallium efflux assay (FluoZin-1 fluorescence) in SK2 expressing HEK-293 cells; format: cell-based; conditions: stimulus buffer with 5 μM ionomycin; cells preloaded with thallium; FIG. 5
# Protocol: Instead of loading the cells with 2 μM BTC-AM, the cells were loaded with 2 μM FluoZin-1 (Molecular Probes, Eugene, Oreg.)
# After loading the cells with FluoZin-1, the cells were exposed to 10 μl/well of Cl^−-free assay buffer containing 7.5 mM Tl2SO4 for 10 minutes at room temperature. This step loads the cells with thallium which interacts with the thallium ion sensitive fluorescent dye FluoZin-1 and increases its fluorescence.
# Following loading the cells with thallium ions, the solution bathing the cells was aspirated off, and replaced with 80 μl/well of Cl^−-free assay buffer.
# [7] = target: T4, voltage-gated K+ channel KCNQ2 (Mus musculus, UniProt Q9Z351); experiment: Thallium influx assay (BTC fluorescence) in HEK-293 cells stably transfected with KCNQ2; format: cell-based; conditions: 15 μM final; thallium ions (5 mM) and K+ (20 mM); FIG. 3A
# T4 construct: expressed in transfected cells
# Protocol: as §1
# HEK-293 cell line stably transfected with the voltage-gated K^+ channel KCNQ2 was used; • 2. The channel opener used was retigabine (Main, M. J., et al., Mol. Pharmacol., 2000, 58, 253-62) at a final concentration of 15 μM; and • 3. The channel blocker DMP-543 (Zaczek, R., et al., J. Pharmacol. Exp. Ther. 1998, 285, 724-30) used was at a final concentration of 15 μM.
# To detect channel blockers the KCNQ2 channels were opened with a combination of thallium ions (5 mM) and K^+ (20 mM). To detect openers the assay was initiated with thallium ions (3 mM).
# To detect channel blockers the assay was started by adding 11 μl of stimulus buffer containing: 12.5 mM Tl2SO4 and 50 mM K2SO4 dissolved in the Cl^−-free assay buffer (Table II) containing 2 mM amaranth and 1 mM tartrazine. […]
# [8] = Example III (Maxi-K) conditions
# T2 sequence (Q8NER1 whole entry): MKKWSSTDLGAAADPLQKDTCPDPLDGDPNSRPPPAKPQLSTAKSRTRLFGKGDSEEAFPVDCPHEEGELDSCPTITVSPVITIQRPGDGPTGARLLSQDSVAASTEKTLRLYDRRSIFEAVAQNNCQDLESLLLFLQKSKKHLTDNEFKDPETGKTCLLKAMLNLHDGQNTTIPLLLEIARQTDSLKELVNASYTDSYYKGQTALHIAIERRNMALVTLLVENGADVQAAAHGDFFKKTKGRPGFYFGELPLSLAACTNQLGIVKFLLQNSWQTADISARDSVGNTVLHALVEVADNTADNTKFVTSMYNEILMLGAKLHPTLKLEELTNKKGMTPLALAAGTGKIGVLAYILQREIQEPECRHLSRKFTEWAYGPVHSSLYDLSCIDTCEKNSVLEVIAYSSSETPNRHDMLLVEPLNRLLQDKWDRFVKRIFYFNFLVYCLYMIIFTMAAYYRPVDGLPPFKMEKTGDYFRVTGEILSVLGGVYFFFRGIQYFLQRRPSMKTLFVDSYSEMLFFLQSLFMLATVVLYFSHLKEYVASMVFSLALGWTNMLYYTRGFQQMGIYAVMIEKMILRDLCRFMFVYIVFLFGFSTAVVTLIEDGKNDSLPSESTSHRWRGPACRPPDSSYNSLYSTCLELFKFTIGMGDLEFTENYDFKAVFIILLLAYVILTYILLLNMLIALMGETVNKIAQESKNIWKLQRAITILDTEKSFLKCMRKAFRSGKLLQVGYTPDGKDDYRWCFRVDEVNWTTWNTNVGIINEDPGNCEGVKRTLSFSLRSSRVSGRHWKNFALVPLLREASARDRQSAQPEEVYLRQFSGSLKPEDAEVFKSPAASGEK
# T3 sequence (Q9H2S1 whole entry): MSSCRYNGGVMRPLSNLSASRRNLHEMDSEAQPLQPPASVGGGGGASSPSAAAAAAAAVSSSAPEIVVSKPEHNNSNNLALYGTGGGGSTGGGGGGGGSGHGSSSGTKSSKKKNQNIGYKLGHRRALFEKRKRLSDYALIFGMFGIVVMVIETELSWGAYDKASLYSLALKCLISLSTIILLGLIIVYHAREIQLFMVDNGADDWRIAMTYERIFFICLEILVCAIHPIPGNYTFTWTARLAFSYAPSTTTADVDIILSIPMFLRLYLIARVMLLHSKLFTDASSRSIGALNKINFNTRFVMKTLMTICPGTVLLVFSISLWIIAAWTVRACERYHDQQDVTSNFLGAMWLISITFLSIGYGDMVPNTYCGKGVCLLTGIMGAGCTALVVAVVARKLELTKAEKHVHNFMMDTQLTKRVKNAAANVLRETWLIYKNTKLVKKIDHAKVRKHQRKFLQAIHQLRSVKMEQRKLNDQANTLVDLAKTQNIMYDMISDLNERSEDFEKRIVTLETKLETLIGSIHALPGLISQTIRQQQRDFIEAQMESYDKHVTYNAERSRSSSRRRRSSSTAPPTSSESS
# T1 sequence (Q12791 whole entry): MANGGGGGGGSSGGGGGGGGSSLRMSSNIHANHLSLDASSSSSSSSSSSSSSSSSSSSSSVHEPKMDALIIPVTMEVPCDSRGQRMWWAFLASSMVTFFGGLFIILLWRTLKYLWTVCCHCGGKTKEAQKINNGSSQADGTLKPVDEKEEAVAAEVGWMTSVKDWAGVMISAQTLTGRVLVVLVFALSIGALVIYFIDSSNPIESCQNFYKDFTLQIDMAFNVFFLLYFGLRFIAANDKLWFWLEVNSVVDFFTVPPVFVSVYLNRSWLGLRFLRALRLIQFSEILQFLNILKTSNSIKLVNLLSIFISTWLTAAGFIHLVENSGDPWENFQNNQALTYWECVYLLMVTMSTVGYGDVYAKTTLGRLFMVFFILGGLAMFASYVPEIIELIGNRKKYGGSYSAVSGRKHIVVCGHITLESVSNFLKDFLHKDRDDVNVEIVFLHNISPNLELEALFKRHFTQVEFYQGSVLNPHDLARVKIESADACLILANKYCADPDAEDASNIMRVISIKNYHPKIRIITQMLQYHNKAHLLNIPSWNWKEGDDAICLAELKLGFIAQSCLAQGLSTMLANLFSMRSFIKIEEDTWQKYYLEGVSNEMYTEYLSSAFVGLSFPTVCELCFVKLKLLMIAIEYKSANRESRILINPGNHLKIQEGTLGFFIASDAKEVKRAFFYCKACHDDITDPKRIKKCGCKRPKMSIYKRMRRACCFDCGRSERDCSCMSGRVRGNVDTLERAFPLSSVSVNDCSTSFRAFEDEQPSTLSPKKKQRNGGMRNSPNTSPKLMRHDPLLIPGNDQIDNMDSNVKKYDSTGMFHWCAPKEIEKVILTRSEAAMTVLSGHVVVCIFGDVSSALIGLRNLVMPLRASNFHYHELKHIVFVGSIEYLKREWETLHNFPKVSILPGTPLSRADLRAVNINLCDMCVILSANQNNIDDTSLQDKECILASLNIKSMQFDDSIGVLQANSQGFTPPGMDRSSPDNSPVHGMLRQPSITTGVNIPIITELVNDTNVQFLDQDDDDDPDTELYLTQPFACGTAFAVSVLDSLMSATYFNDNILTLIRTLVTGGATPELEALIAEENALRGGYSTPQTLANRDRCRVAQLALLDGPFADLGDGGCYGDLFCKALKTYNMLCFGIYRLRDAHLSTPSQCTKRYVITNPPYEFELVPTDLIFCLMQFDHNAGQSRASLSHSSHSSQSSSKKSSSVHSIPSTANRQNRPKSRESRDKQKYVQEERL
# Chain of Muscarinic acetylcholine receptor (P20309 whole entry): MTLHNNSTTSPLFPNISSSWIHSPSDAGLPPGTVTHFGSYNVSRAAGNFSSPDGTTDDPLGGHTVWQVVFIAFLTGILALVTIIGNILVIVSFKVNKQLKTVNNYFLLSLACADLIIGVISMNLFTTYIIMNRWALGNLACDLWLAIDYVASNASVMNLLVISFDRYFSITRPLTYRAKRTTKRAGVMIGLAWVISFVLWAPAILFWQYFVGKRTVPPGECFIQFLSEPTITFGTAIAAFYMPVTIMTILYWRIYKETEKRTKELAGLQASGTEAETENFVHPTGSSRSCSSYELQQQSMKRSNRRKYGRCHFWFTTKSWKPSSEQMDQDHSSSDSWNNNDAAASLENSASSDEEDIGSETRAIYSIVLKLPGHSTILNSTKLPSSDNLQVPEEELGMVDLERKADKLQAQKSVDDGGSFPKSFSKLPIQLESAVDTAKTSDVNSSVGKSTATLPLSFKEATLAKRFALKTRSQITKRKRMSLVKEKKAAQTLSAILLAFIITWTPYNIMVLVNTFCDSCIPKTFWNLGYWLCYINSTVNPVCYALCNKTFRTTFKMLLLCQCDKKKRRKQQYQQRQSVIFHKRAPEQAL
# T4 sequence (Q9Z351 whole entry): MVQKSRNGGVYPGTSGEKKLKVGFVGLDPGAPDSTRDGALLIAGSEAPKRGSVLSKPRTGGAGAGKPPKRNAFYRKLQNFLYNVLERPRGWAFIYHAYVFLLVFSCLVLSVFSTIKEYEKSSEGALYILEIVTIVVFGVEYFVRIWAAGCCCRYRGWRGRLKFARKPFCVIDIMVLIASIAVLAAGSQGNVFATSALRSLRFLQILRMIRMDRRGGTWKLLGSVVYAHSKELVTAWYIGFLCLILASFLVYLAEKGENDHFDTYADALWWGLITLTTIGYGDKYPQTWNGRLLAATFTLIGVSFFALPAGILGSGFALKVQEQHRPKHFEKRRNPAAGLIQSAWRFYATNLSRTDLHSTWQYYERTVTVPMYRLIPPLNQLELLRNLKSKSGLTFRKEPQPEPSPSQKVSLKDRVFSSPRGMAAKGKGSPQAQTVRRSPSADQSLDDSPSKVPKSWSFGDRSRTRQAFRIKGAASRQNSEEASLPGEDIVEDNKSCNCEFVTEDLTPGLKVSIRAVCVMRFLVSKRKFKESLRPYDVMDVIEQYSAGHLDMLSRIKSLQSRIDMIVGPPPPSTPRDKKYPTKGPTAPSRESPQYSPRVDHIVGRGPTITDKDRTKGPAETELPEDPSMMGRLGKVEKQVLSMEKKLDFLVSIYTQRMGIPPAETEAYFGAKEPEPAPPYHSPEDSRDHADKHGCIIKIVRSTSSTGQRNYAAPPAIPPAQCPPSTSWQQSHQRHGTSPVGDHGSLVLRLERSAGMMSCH
molecule,measurement,setting,value
O=c1[nH]c2cc(C(F)(F)F)ccc2n1-c1cc(C(F)(F)F)ccc1O [NS-1619],Effect of opener on the thallium-induced increase in BTC fluorescence compared to absence of opener,[1],marked increase
same,"Effect on the fluorescence of BTC loaded into native, untransfected HEK cells",[2]; [8],Neither iberiotoxin nor NS-1619 had any effects
COc1cc(CNC(=O)CCCC/C=C/C(C)C)ccc1O [capsaicin],Effect of compound alone on BTC fluorescence in VR1 expressing CHO cells,[3],"small decrease, but no increase"
same,Change in BTC fluorescence upon addition of thallium and agonist,"[3]; stimulus buffer with 1 μM capsaicin and 7.5 mM Tl2SO4, FIG. 4",substantial increase
"C[N+](C)(C)CC#CCN1CCCC1=O [oxo-M, oxotremorine-M]",Change in BTC fluorescence upon addition of muscarinic receptor agonist,[4],increase in BTC fluorescence
"Iberiotoxin (QFTDVDCSVSKECWSVCKDLFGVDRGKCMGKKCRCYQ; UniProt P24663 1-37, looked up)",Effect of blocker on the thallium/ionomycin/potassium-induced increase in BTC fluorescence,"[1]; 100 nM final, stimulus buffer with 15 μM ionomycin, FIG. 2A",completely abolished
same,"Effect on the fluorescence of BTC loaded into native, untransfected HEK cells",[2]; [8],Neither iberiotoxin nor NS-1619 had any effects
C[C@H](CCC(=O)O)C[C@H](C)C[C@H](C)C(=O)/C=C(\O)[C@H](C)C[C@H](C)C/C=C/[C@@H](C)[C@@H](O)[C@@H](C)[C@@H](O)C[C@@H]1CC[C@@](C)([C@H]2CC[C@@](C)([C@@H](C)O)O2)O1 [ionomycin],Change in BTC fluorescence upon addition of thallium ions plus ionomycin (activation of SK2),[5],substantial increase
same,Change in FluoZin-1 fluorescence upon addition of ionomycin (thallium efflux via activated SK channel),[6],decrease in fluorescence
O=C1c2ccccc2C(Cc2ccnc(F)c2)(Cc2ccnc(F)c2)c2ccccc21 [DMP-543],Effect of blocker on the thallium/potassium-induced increase in BTC fluorescence,[7],completely abolished
same,"Effect on the fluorescence of BTC loaded into native, untransfected HEK cells",[2]; Example IV (KCNQ2) conditions,Neither DMP-543 nor retigabine had any effects
Oc1cc2c(cc1O)CN(C(=S)NCCc1ccc(Cl)cc1)CCC2 [capsazepine],Effect of antagonist on the thallium/capsaicin-induced increase in BTC fluorescence,"[3]; 10 μM final, FIG. 4",completely abolished
same,Effect of compound alone on BTC fluorescence in VR1 expressing CHO cells,[3],no effect
